Laboratory results: ChEMBL document CHEMBL4020723, “Indoles as therapeutics of interest in medicinal chemistry: Bird's eye view” (Eur J Med Chem, 2017)
pIC50: −log10 of the molar value. Values after ≈ are worked out from the molar mass of the structure shown.

Tests used:
[1] = tested on: Plasmodium falciparum; assay: Antiplasmodial activity against chloroquine-resistant Plasmodium falciparum W2 infected in human erythrocytes after 72 hrs by giemsa staining based microscopic analysis; assay type: functional, cell-based; details: W2, 72 h
[2] = tested on: P388; assay: Cytotoxicity against mouse P388 cells; assay type: functional, cell-based
[3] = tested on: HCT-8; assay: Cytotoxicity against human HCT8 cells; assay type: functional, cell-based
[4] = tested on: A549; assay: Cytotoxicity against human A549 cells; assay type: functional, cell-based
[5] = Cytotoxicity against human MDA-MB cells; assay type: functional, cell-based
[6] = tested on: Human alphaherpesvirus 2; assay: Antiviral activity against Herpes simplex virus type 2 by plaque reduction assay; assay type: functional; details: read-out: ID50 (the source's name)
[7] = tested on: Human alphaherpesvirus 1; assay: Antiviral activity against Herpes simplex virus type 1 by plaque reduction assay; assay type: functional; details: read-out: ID50 (the source's name)
[8] = tested on: Human immunodeficiency virus 1; assay: Antiviral activity against HIV-1 assessed as inhibition of virus-induced syncytia formation; assay type: functional
[9] = tested on: Rattus norvegicus; assay: Antiinflammatory activity in rat assessed as inhibition of carrageenan-induced paw edema at 50 mg/kg, po administered 1 hr prior to carrageenan challenge measured 4 hrs post dose; assay type: functional
[10] = tested on: HeLa; assay: Cytotoxicity against human HeLa cells; assay type: functional, cell-based
[11] = tested on: Plasmodium falciparum; assay: Antimalarial activity against Plasmodium falciparum D6; assay type: functional
[12] = tested on: Mycobacterium; assay: Antibacterial activity against Mycobacterium; assay type: functional
[13] = tested on: Staphylococcus aureus; assay: Antibacterial activity against Staphylococcus aureus; assay type: functional
[14] = tested on: HL-60; assay: Cytotoxicity against human HL60 cells assessed as reduction in cell viability after 72 hrs by MTT assay; assay type: functional, cell-based; details: HL-60, 72 h
[15] = tested on: K562; assay: Cytotoxicity against human K562 cells assessed as reduction in cell viability after 72 hrs by MTT assay; assay type: functional, cell-based; details: K562, 72 h
[16] = molecular target: Protein kinase C beta type (Homo sapiens) (UniProt P05771); assay: Inhibition of PKCbeta (unknown origin)
Chain of Protein kinase C beta type (Homo sapiens) (P05771 2-671 limits assumed): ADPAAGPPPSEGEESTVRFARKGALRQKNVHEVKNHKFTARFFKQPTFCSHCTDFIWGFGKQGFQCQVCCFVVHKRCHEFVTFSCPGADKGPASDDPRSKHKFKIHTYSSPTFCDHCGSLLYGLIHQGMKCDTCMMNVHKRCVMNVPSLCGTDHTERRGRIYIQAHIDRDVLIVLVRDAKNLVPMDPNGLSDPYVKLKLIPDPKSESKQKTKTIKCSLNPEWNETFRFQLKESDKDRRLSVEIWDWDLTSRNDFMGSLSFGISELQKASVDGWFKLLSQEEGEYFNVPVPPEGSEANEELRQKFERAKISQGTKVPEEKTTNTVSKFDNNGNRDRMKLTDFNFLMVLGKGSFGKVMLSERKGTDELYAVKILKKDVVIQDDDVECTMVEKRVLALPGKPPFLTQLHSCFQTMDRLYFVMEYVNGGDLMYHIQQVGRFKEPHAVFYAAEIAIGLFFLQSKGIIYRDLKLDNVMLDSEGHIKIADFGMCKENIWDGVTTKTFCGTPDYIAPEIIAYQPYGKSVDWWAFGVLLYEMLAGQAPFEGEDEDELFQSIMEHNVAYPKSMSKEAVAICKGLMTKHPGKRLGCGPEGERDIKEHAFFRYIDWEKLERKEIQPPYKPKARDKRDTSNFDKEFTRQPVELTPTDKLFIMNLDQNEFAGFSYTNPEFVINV

[17] = molecular target: Protein kinase C alpha type (Homo sapiens) (UniProt P17252); assay: Inhibition of PKCalpha (unknown origin)
[18] = tested on: Enterococcus faecalis; assay: Antibacterial activity against Enterococcus faecalis; assay type: functional
[19] = tested on: Staphylococcus haemolyticus; assay: Antibacterial activity against Staphylococcus haemolyticus; assay type: functional
[20] = tested on: Streptococcus pyogenes; assay: Antibacterial activity against Streptococcus pyogenes; assay type: functional
[21] = tested on: Bacillus subtilis; assay: Antibacterial activity against Bacillus subtilis; assay type: functional
[22] = tested on: Enterococcus faecium; assay: Antibacterial activity against Enterococcus faecium; assay type: functional
[23] = tested on: Plasmodium falciparum; assay: Antiplasmodial activity against chloroquine-resistant Plasmodium falciparum W2 after 24 hrs by liquid scintillation counting analysis; assay type: functional; details: W2, 24 h
[24] = tested on: Plasmodium falciparum; assay: Antiplasmodial activity against chloroquine-resistant Plasmodium falciparum K1 after 24 hrs by liquid scintillation counting analysis; assay type: functional; details: K1, 24 h
[25] = Inhibition of HDAC (unknown origin); design: species or system Homo sapiens
[26] = tested on: HT-29; assay: Cytotoxicity against human HT-29 cells; assay type: functional, cell-based
[27] = tested on: KB; assay: Cytotoxicity against human KB cells; assay type: functional, cell-based
[28] = tested on: P388; assay: Cytotoxicity against mouse doxorubicin-resistant P388 cells; assay type: functional, cell-based
[29] = Cytotoxicity against human NSCLC-N6 cells; assay type: functional, cell-based
[30] = tested on: Helicobacter pylori; assay: Antibacterial activity against Helicobacter pylori; assay type: functional

Structure (SMILES): C=C1c2[nH]c3ccccc3c2C2C(CC)C1CCN2C (stereo not drawn)
- IC50 [1]: < 1 µg/mL

Structure (SMILES): CN1C[C@H](c2c[nH]c3c(Br)c(Br)cc(O)c23)NC[C@H]1c1c[nH]c2cc(Br)ccc12
- IC50 [2]: 15 µg/mL (≈ 25.7 µM)
- IC50 [3]: 1 to 10 µg/mL (≈ 1.71 to 17.1 µM)
- IC50 [4]: 1 to 10 µg/mL (≈ 1.71 to 17.1 µM)
- IC50 [5]: 1 to 10 µg/mL (≈ 1.71 to 17.1 µM)

Structure (SMILES): CC(C)CC(=O)[C@@H](O)Cc1c[nH]c2ccccc12
- IC50 [6]: 1500 µg/mL (≈ 6110 µM)
- IC50 [7]: 1500 µg/mL (≈ 6110 µM)

Structure (SMILES): COc1ccc2c(c1)N=CN1CCc3c([nH]c4ccccc34)C3=NCC[C@@]321
- EC50 [8]: 0.95 µg/mL (≈ 2.67 µM)

Structure (SMILES): O=C(O)c1ccc(C(=O)N/N=C/c2c(-c3cccs3)[nH]c3ccccc23)cc1
- inhibition in vivo at 50 mg/kg [9]: 55.3%

Structure (SMILES): COC(=O)[C@@]1(C)Nc2c(O)cc3c(c2C1=O)C[C@@H](Br)CN3C(=O)c1cc2cc(OC)c(OC)c(OC)c2[nH]1
- pIC50 [10]: 9.00 to 12.00

Structure (SMILES): Oc1cccc2c1[nH]c1c(C3=C[C@@]4(O)CC/C=C\CCCCN5CC[C@@H]3[C@@]3(C[C@@H]6/C=C\CCCCN6[C@H]34)C5)nccc12
- MIC [11]: 6 µg/mL (≈ 10.6 µM)

Structure (SMILES): O=c1ccc2nccc3c4cccc(O)c4n1c23
- MIC [12]: 2 to 32 µg/mL (≈ 8.47 to 135 µM)
- MIC [13]: 8 to 64 µg/mL (≈ 33.9 to 271 µM)

Structure (SMILES): COC(=O)[C@@]1(C)Nc2c(O)cc3c(c2C1=O)[C@@H](CBr)CN3C(=O)c1cc2cc(OC)c(OC)c(OC)c2[nH]1
- pIC50 [10]: 9.00 to 12.00

Structure (SMILES): CC(C)=CCc1cccc2c1N[C@@H]1N3C(=O)[C@H](Cc4c[nH]c5c(CC=C(C)C)cccc45)NC(=O)[C@@H]3C[C@]21O
- pIC50 [14]: 6.11
- pIC50 [15]: 4.65

Structure (SMILES): COC(=O)[C@@]1(C)NC2=C(C1=O)[C@@]13C[C@H]1CN(C(=O)c1cc4cc(OC)c(OC)c(OC)c4[nH]1)C3=CC2=O
- pIC50 [10]: 9.00 to 12.00

Structure (SMILES): CN1C(=N)N(C)/C(=C/c2c[nH]c3cc(Br)ccc23)C1=O
- MIC [11]: 0.34 µg/mL (≈ 1.02 µM)

Structure (SMILES): [O-][n+]1ccc2c([nH]c3ccccc32)c1C1=C[C@@]2(O)CC/C=C\CCCCN3CC[C@@H]1[C@]1(C[C@@H]4/C=C\CCCCN4[C@H]12)C3
- MIC [11]: 11 µg/mL (≈ 19.5 µM)

Structure (SMILES): N#CCCn1c2ccccc2c2c3c(c4c5ccccc5[nH]c4c21)C(=O)NC3
- INH [16]: 6.2 nM
- INH [17]: 2.3 nM

Structure (SMILES): CN[C@@H](CC(C)C)C(=O)NCCc1c(Br)n(C)c2cc(Br)c(Br)cc12 [ALTEMATAMIDE A]
- MIC [18]: 4 to 32 µg/mL (≈ 7.43 to 59.5 µM)
- MIC [13]: 4 to 32 µg/mL (≈ 7.43 to 59.5 µM)
- MIC [19]: 4 to 32 µg/mL (≈ 7.43 to 59.5 µM)
- MIC [20]: 4 to 32 µg/mL (≈ 7.43 to 59.5 µM)
- MIC [21]: 4 to 32 µg/mL (≈ 7.43 to 59.5 µM)
- MIC [22]: 4 to 32 µg/mL (≈ 7.43 to 59.5 µM)

Structure (SMILES): CN[C@@H](CC(C)C)C(=O)NCCc1c(Br)[nH]c2cc(Br)c(Br)cc12 [ALTEMATAMIDE B]
- MIC [18]: 4 to 32 µg/mL (≈ 7.63 to 61.1 µM)
- MIC [13]: 4 to 32 µg/mL (≈ 7.63 to 61.1 µM)
- MIC [19]: 4 to 32 µg/mL (≈ 7.63 to 61.1 µM)
- MIC [20]: 4 to 32 µg/mL (≈ 7.63 to 61.1 µM)
- MIC [21]: 4 to 32 µg/mL (≈ 7.63 to 61.1 µM)
- MIC [22]: 4 to 32 µg/mL (≈ 7.63 to 61.1 µM)

Structure (SMILES): CN[C@@H](CC(C)C)C(=O)NCCc1c(Br)[nH]c2ccc(Br)cc12 [ALTEMATAMIDE C]
- MIC [18]: 4 to 32 µg/mL (≈ 8.98 to 71.9 µM)
- MIC [13]: 4 to 32 µg/mL (≈ 8.98 to 71.9 µM)
- MIC [19]: 4 to 32 µg/mL (≈ 8.98 to 71.9 µM)
- MIC [20]: 4 to 32 µg/mL (≈ 8.98 to 71.9 µM)
- MIC [21]: 4 to 32 µg/mL (≈ 8.98 to 71.9 µM)
- MIC [22]: 4 to 32 µg/mL (≈ 8.98 to 71.9 µM)

Structure (SMILES): O=c1ccc2nccc3c4ccccc4n1c23 [CANTHIN-6-ONE]
- MIC [12]: 2 to 32 µg/mL (≈ 9.08 to 145 µM)
- MIC [13]: 8 to 64 µg/mL (≈ 36.3 to 291 µM)

Structure (SMILES): C[n+]1c2ccccc2cc2[n-]c3ccccc3c21.Cl [CRYPTOLEPINE HYDROCHLORIDE]
- IC50 [23]: 0.027 to 0.063 µg/mL
- IC50 [24]: 0.027 to 0.063 µg/mL

Structure (SMILES): C[n+]1c2ccccc2cc2[n-]c3ccccc3c21 [CRYPTOLEPINE]
- IC50 [23]: 0.027 to 0.063 µg/mL (≈ 0.116 to 0.271 µM)
- IC50 [24]: 0.027 to 0.063 µg/mL (≈ 0.116 to 0.271 µM)

Structure (SMILES): O=C(/C=C/c1ccc(CN(CCO)CCc2c[nH]c3ccccc23)cc1)NO [DACINOSTAT]
- pIC50 [25]: 7.49

Structure (SMILES): NCCc1c(C(CN)c2c[nH]c3cc(Br)ccc23)[nH]c2cc(C(CN)c3c[nH]c4cc(Br)ccc34)c(O)cc12 (stereo not drawn) [GELLIUSINE A]
- IC50 [26]: 10 to 20 µg/mL (≈ 15.4 to 30.7 µM)
- IC50 [2]: 10 to 20 µg/mL (≈ 15.4 to 30.7 µM)
- IC50 [27]: 10 to 20 µg/mL (≈ 15.4 to 30.7 µM)
- IC50 [28]: 10 to 20 µg/mL (≈ 15.4 to 30.7 µM)
- IC50 [29]: 10 to 20 µg/mL (≈ 15.4 to 30.7 µM)

Structure (SMILES): Cn1c2c3ccccc3nc-2c(O)c2ccccc21 [HYDROXYCRYPTOLEPINE]
- IC50 [23]: 0.027 to 0.063 µg/mL (≈ 0.109 to 0.254 µM)
- IC50 [24]: 0.027 to 0.063 µg/mL (≈ 0.109 to 0.254 µM)

Structure (SMILES): CNC1=NC(=O)[C@H]([C@H](C)c2c[nH]c3ccccc23)O1 [INDOMYCIN]
- MIC [13]: 0.5 µg/mL (≈ 1.94 µM)
- MIC [30]: 0.016 µg/mL (≈ 0.0622 µM)

Structure (SMILES): O[C@]12C=C(c3nccc4c3[nH]c3ccccc34)[C@@H]3CCN(CCCC/C=C\CC1)C[C@@]31C[C@@H]3/C=C\CCCCN3[C@H]12 [MANZAMINE A]
- MIC [11]: 4.5 µg/mL (≈ 8.2 µM)

Structure (SMILES): Cn1c2nc3ccccc3c-2cc2ccccc21 [NEOCRYPTOLEPINE]
- IC50 [23]: 0.027 to 0.063 µg/mL (≈ 0.116 to 0.271 µM)
- IC50 [24]: 0.027 to 0.063 µg/mL (≈ 0.116 to 0.271 µM)
